Where two headings read alike, the source gives them in different places.
Test system: Brain Homogenate
Experiment: Peroxylipid formation inhibiting effect in brain homogenate (thiobarbituric acid (TBA) method)
Type: biochemical, Wistar rats (male, 12-week old)
Conditions: 37° C., 30 minutes, pH 7.4
Experimental: JC1:Wistar rats (male, 12-week old) were used as test animals. The rats were sacrificed by decapitation, and the brain was quickly removed and homogenized with 10 ml of 10 mM Tris-HCl buffer (pH 7.4) containing 150 mM KCl. The resulting homogenate was centrifuged at 2,200 rpm, at 4° C., for 10 minutes, and the supernatant was used in the test. 250 μl of the supernatant was put into a 96-well plate, to which was added a test compound and incubated at 37° C. for 30 minutes.
The concentration of glutamic acid and succinic acid, if added prior to the incubation, was 5.0 mM and 2.5 mM, respectively.
To determine the amount of the peroxylipid formed, used was a thiobarblturic acid (TBA) method. Briefly, 50 μl of 35% perchloric acid was added to the incubated mixture, which was then centrifuged at 2,000 rpm, at 4° C., for 10 minutes. The resulting supernatant was transferred into a different 96-well plate in an amount of 200 μl/well. 100 μl/well of TBA (5 mg/ml TBA in 50% acetic acid) was added thereto, and reacted at 80° C. for 1 hour. Then, the reaction mixture was cooled to room temperature, and its absorbance at 532 nm was measured.
On the other hand, a calibration curve was prepared using tetraethoxypropane which is a […] for TBA. In the same manner, the peroxylipid concentration in a sample that had been incubated for 30 minutes in the absence of the test compound, and also the peroxylipid concentration in a sample to which had been added 35% perchloric acid prior to the incubation (in the absence of the test compound) were also obtained. The inhibition percentage was calculating according to the following equation. The 50% inhibitory concentration (IC50) was obtained, using a log-probit method.
Inhibition Percentage (%)=[(C-A)/(C-B)]×100
A: Peroxylipid concentration in the sample to which was added the test compound;
B: Peroxylipid concentration in the sample to which was added 35% perchloric acid prior to the incubation;
C: Peroxylipid concentration in the sample to which was not added the test compound.

[1] = brain homogenate only, read-out: Peroxylipid Formation Inhibiting Effect (IC50) Brain Homogenate Only
[2] = glutamic acid 5.0 mM and succinic acid 2.5 mM added prior to incubation, read-out: Peroxylipid Formation Inhibiting Effect (IC50) Glutamic Acid and Succinic Acid Added

| Structure (SMILES) | IC50 [1] [nM] | IC50 [2] [nM] |
| --- | --- | --- |
| CCOC(=O)CCCCCCCC1CC2=C(C1)C(=O)C(OC)=C(OC)C2=O [Ex. 9, Ethyl 8-(5,6-dimethoxy-4,7-dioxoindan-2-yl)octanoate] | 2300 | 940 |
| COC1=C(OC)C(=O)C2=C(CC(CCCCCCCCO)C2)C1=O [Ex. 10, 2-(8-Hydroxyoctyl)-5,6-dimethoxyindan-4,7-dione] | 1100 | 170 |
